Results as given in patent US9580513B2, “VHZ for diagnosis and treatment of cancers” (AGENCY FOR SCIENCE, TECHNOLOGY AND RESEARCH (A*STAR), priority 2008, dated 2017).

T1: VHZ-GST (Homo sapiens, UniProt Q9BVJ7)
T1 construct: made in house
T1 sequence (Q9BVJ7 1-150): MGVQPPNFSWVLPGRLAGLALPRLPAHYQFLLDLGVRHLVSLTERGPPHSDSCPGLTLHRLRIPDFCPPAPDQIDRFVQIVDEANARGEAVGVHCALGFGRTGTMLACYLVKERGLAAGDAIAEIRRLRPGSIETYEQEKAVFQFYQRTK


What was measured:
VHZ-GST = target: T1, VHZ-GST; assay: Tyrosine phosphatase assay (ENZCHEK kit, fluorogenic substrate); assay type: biochemical; settings: 10 μM sodium orthovanadate added to the reaction; 0.675 picomoles VHZ-GST
Experimental: FIG. 3A. We test each protein (0.675 picomoles) for its PTPase activity.
The ENZCHEK™ kit (Invitrogen, R22065) is used. As per the manufacturer's protocol, the fluorogenic substrate is reconstituted in the assay wells with buffer; the desired potential PTPases (0.675 picomole for each protein: VHZ-GST, VHZ-GST+Phosphatase inhibitor, VHZ(C95S)-GST, and control GST) are added to the wells and incubated 30 min or 90 min respectively. The fluorescence is then quantified using a Gemini XPS microplate spectrofluorometer (Molecular Devices). Fluorescence is measured at 10 minute intervals at the excitation and emission wavelengths of 358 and 452 nm, respectively. The phosphatase inhibitor sodium orthovanadate (10 μM) is used in the assay as a negative control.
The PTPase activities of VHZ-GST, indicated by increasing blue fluorescence (excitation/emission maxima ˜358/452 nm), are abolished either by mutation of Cys 95 to Ser or by adding phosphatase inhibitor (sodium orthovanadate) into the assay (FIG. 3A, Panel A).

[1] = test system: HCT116 colon cancer cells that express VHZ; assay: Formation of tumours by HCT116 colon cancer cells injected via the tail vein of nude mice; assay type: in vivo; settings: 1×10^6 HCT116 cells via tail vein on day 1; chimeric mAb into tail vein from day 3, then two administrations weekly; compared with PBS (untreated)
Excerpt: FIG. 15B. Either PBS (untreated) or chimeric mAb (treated) is administrated into tail vein starting the first treatment on day 3; followed by two administrations weekly. Experiment periods: Top two animals starting 11 Feb.-2 Apr. 2009 bottom two animals starting 11 Feb.-13 Apr. 2009.
All animal studies have been approved by the Institutional Review Board of the IMCB. We follow strictly rules and policies of the Animal Facility Center of The Agency for Science, Technology and Research (A* STAR), Singapore. Nine-week old nude mice (Jackson Labs, USA) are used.
By western blot we confirm that HCT116 colon cancer cell line is VHZ positive comparing with MDCK cell line. 1×10^6 HCT116 cancer cells were injected into the circulation of nude mice via the tail vein on day 1.
Either PBS (untreated) or chimeric mAb (treated) was administrated into tail vein starting the first treatment on day 3; followed by two administrations weekly. Experiment periods: Top two animals starting 11 Feb.-2 Apr. 2009 bottom two animals starting 11 Feb.-13 Apr. 2009.

| Molecule | PTPase activity of VHZ (VHZ-GST) | formation of tumours by HCT116 colon cancer cells [1] |
| --- | --- | --- |
| [Na+].[Na+].[Na+].[O]=[V]([O-])([O-])[O-] [sodium orthovanadate] | completely abolished |  |
| VHZ human/mouse Chimeric mAb (Clone #209): mouse variable regions of hybridoma clone #209 (SEQ ID NO: 4 and 5) joined with human IgG1 constant region (antibody, listed as Mus musculus, V domains shown, human IgG1 constant regions lacking entries) VH: LVDMDSRLNLVFLVLILKGVQCDVQLVESGGGLVQPGGSRKLSCAASGFTFSSFGMHWVRQAPEKGLEWVAYISSGSSTIYYADTVKGRFTISRDNPKNTLFLQMTSLRSEDTAMYYCARWQTARATRGYAMDYWGQGTSVTVSS VL: VMTQSHKFMSTSVGDRVSITCKASQDVNTAVAWYQQKPGQSPKLLIYSASYRFTGVPDLFTGSGSGTDFTFTINSVQAEDLAVYYCQQHYSSPWTFGGGTKLEIKRADAAPTVSIFHHPVSLG |  | effectively inhibits the formation of tumours |
